Literature values in patent US20090208944A1 (priority 2005, published 2009).

Target: CYP2D6 enzyme system (Homo sapiens, UniProt P10635)
Details: classification from literature

Sequence of CYP2D6 enzyme system (P10635 whole entry): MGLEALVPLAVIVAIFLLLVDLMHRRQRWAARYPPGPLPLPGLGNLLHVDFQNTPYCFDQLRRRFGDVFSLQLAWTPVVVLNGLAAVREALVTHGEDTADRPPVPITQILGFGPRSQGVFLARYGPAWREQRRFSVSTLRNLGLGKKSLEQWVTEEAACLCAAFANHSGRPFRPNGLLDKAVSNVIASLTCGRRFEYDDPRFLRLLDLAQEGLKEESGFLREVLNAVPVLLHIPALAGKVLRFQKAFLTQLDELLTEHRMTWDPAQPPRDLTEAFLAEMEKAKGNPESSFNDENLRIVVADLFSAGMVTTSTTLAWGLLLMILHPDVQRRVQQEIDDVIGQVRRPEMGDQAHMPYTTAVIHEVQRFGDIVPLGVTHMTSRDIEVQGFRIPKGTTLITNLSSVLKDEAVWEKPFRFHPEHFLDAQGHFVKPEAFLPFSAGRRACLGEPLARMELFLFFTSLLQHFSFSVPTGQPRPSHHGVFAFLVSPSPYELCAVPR

Row | Structure (SMILES) | potency as inhibitor of the CYP2D6 enzyme system
1 | CN(C)CCC=C1c2ccccc2COc2ccccc21 [doxepin] | Moderate
2 | CN[C@H]1CC[C@@H](c2ccc(Cl)c(Cl)c2)c2ccccc21 [sertraline] | Moderate
3 | Fc1ccc([C@@H]2CCNC[C@H]2COc2ccc3c(c2)OCO3)cc1 [paroxetine] | Potent
4 | O=C(CCCN1CCC(O)(c2ccc(Cl)cc2)CC1)c1ccc(F)cc1 [haloperidol] | Moderate
5 | CN/C(=N/CCSCc1nc[nH]c1C)NC#N [cimetidine] | Moderate
